US4067997A, “Synergistic microbecidal composition and method” (priority 1976, dated 1978)
Converted amounts (≈) assume the structure as drawn. Where a name gives a salt, the structure may show the parent alone. Read-outs that look alike come from different tables or passages of the source.

Columns and labels:
Assay type in all cases: cell-based
[1] = tested on: nine gram-positive organisms and the yeast/fungus Candida; test: MIC, broth dilution, over all organisms (Examples I/II); settings: for Inhibition in words: saturated acids, Table 1; for MIC: read-out: MIC range
Description: In order to establish comparative bactericidal and fungicidal results with homologous fatty acids, a series of experiments was performed with thirty straight-chain fatty acids and derivatives thereof. Eight different gram-negative and twelve different gram-positive organisms, representing a very broad spectrum of organisms, were used in these experiments including the fungus Candida (a yeast). Additionally, fatty acids were chosen to show the effects of saturation versus unsaturation, in the fatty acid claim. Standard solutions of the fatty acids and their derivatives were prepared by first dissolving the weighed compounds in 1 to 2 ml of 95% ethanol and immediately pouring this solution into 200 ml of Tripticase Soy Broth. These lipid compounds which are insoluble in water and broth precipitated into very small crystals or droplets. The tubes containing the suspension were warmed to approximately 70° C and were then placed in an ultrasonic tank for further solubilization of the lipid derivatives.
Standard solutions (or suspensions) at 1,000 μg/ml were twofold serially diluted with additional broth to a concentration of 125 μg/ml. A 4-ml amount of each dilution was then quickly, and with constant agitation, dispensed into appropriately labeled screw-capped glass tubes (16 by 125 mm). The tubes were sterilized with steam at 15 psi for 15 minutes. After sterilization, all tubes were cooled and incubated overnight at 35° C to insure sterility.
All compounds were compared on a molar (micromoles/milliliter) rather than on a mass basis. In the following lists of organisms used, those followed by a parenthetical number are registered with the American Type Culture Collection (ATCC); the remainder were isolates from Providence Hospital or Northland Laboratory.
Staphylococcus aureus, S. epidermidis, beta-hemolytic streptococci (Group A and non-group A), group D streptococcus, Bacillus subtilis (6051), Sarcina lutea (9431), Micrococcus sp., Candida albicans, Nocardia asteroids (3308), Corynebacterium sp. (10700), and pneumococcus (63001).
One drop (0.04 ± 0.01 ml) of an 18-hr broth culture containing 10^7 and 10^9 organisms/ml was added to each dilution of the test compound, as well as to a tube of plain broth which served as the positive control. After inoculation, the contents of each tube were well mixed, and the tubes were incubated at 35° C in a 5% carbon dioxide + […] atmosphere.
The MIC is defined as the lowest concentration of compound at which no […] evidence of growth was observed when turbidity of the inoculated broth dilutions was compared with control tubes. […] Only a one-tube difference between the bactericidal and bacteriostatic concentrations was normally observed.
Table 5 presents a comparison of the C10 and C12 free acids and their glyceryl derivatives, and Table 6 gives the corresponding ranges of activity.
Standard solutions (1000 μg/ml) of three fatty acids and polyglycerol esters thereof were prepared as described in Example I. Also sucrose esters were prepared by transferring the weighed compounds (0.2 gm. dissolved in 1 ml absolute methanol) into 200 ml of sterile Trypticase Soy Broth (TSB). These standard solutions (1000 μg/ml) were twofold serially diluted with additional sterile broth to a concentration of 125 μg/ml. A 3.8 aliquot of each dilution was asceptically delivered into sterile screw-capped culture tubes. All tubes were incubated overnight at 36° C to insure sterility. The microorganisms used in this example were the same as those used in Example I.
The inoculum, 0.05 ml of an 13-24 hour TSB culture (approximately 10^9 organisms/ml) was asceptically delivered into all dilutions of the compounds, mixed well, and incubated at 36° C. […]

Candida albicans = test: MIC on mass basis (Example V procedure); settings: Candida albicans, read-out: MIC
Description: (§1) The essential procedure of Example I was followed with a series of phenolic compounds, with the exception that the test method was conducted on a mass (μg/ml) basis rather than a molecular (mol/ml) basis of the foregoing tests, since the long established phenol-coeffecient test is on a mass rather than molecular basis. Additionally, a different but closely related group of organisms were used in this test, in order to give a complete representative span on gram-negative, gram-positive and fungus organisms. Additionally, the phenolic derivatives chosen for test purposes include a number of derivatives which are presently accepted by the FDA as food-grade phenolic microbicides.
(§2) The same procedure of Example V was repeated but with combinations of mono-laurin (GML).
(§3) The procedure of Example V was repeated with combinations of glycerol mono-laurin (GML) and ethylenediamine tetraacetic acid (EDTA) as the calcium salt and in combination with BHA.

Escherichia coli = test: MIC on mass basis (Example V procedure); settings: Escherichia coli, read-out: MIC
Description: as §1, §2, §3

Nocardia asteroides = test: MIC on mass basis (Example V procedure)
Description: as §1, §2, §3

Pseudomonas aeruginosa = test: MIC on mass basis (Example V procedure); settings: Pseudomonas aeruginosa, read-out: MIC
Description: as §1, §2, §3

Saccharomyces cerevisiae = test: MIC on mass basis (Example V procedure); settings: Saccharomyces cerevisiae, read-out: MIC
Description: as §1, §2, §3

Staphylococcus aureus = test: MIC on mass basis (Example V procedure); settings: Staphylococcus aureus, read-out: MIC
Description: as §1, §2, §3

Corynebacterium sp. = test: MIC on mass basis (Example V procedure)
Description: as §1

[2] = tested on: Streptococcus faecalis (Group D); test: MIC on mass basis (Example V procedure); settings: Enterococcus faecalis, read-out: MIC
Description: as §1

Streptococcus pyogenes = test: MIC on mass basis (Example V procedure)
Description: as §1

[3] = Table 12, Nocardia asteroides, read-out: MIC
[4] = Table 12, Pseudomonas aeruginosa
[5] = Table 12, Saccharomyces cerevisiae
[6] = Table 12, Staphylococcus aureus
[7] = Table 12, Corynebacterium sp., read-out: MIC
[8] = Table 12, Streptococcus faecalis (Group D)
[9] = Table 12, Streptococcus pyogenes, read-out: MIC

CCCCCC(=O)O [Caproic, caproic acid]
Inhibition in words [1]: not inhibitory at all

CCCCCCCCCCCC(=O)N(C)C [Lauryl N,N-dimethylamide]
MIC ([1]; Table 4, range over the organisms of Table 3): 54 to 109 µM (≈ 12.3 to 24.8 µg/mL)

CCCCCCCCCCCCCC(=O)O [Myristic]
MIC [1]: 218 to 4370 µM (≈ 49.8 to 998 µg/mL)

CCCCCCCC/C=C\CCCCCCCC(=O)O [Oleic acid]
Activity in words ([1]; at the concentration tested): very limited activity

CCc1cc(C(C)(C)C)c(O)c(C(C)(C)C)c1 [C2, 2,6-di-tert-butyl-4-ethylphenol]
MIC (Candida albicans; Table 12, Candida albicans): > 5000 µg/mL
MIC (Escherichia coli; Table 12, Eschericia coli): > 5000 µg/mL
MIC (Nocardia asteroides; [3]): 500 µg/mL
MIC (Pseudomonas aeruginosa; [4]): > 5000 µg/mL
MIC (Saccharomyces cerevisiae; [5]): > 5000 µg/mL
MIC (Staphylococcus aureus; [6]): 5000 µg/mL
MIC (Corynebacterium sp.; [7]): 1000 µg/mL (≈ 4.27 mM)
MIC [2, 8]: 2500 µg/mL (≈ 10.7 mM)
MIC (Streptococcus pyogenes; [9]): 1000 µg/mL (≈ 4.27 mM)

CCCCCCCCCC(=O)OCC(O)CO (centres unmarked) [1-mono-caprin]
MIC ([1]; Table 6, range over the organisms of Table 5, NI = no inhibition): 100 to 2000 µM (≈ 24.6 to 493 µg/mL)

CCCCCCCCCCCCCCCCCC(=O)O [Stearic, stearic acid]
Inhibition in words [1]: not inhibitory at all

CCCCCCCCCCc1cc(C(C)(C)C)c(O)c(C(C)(C)C)c1 [C10, 2,6-di-tert-4-decylphenol]
MIC (Candida albicans; Table 12, Candida albicans): > 5000 µg/mL
MIC (Escherichia coli; Table 12, Eschericia coli): > 5000 µg/mL
MIC (Nocardia asteroides; [3]): 5000 µg/mL
MIC (Pseudomonas aeruginosa; [4]): > 5000 µg/mL
MIC (Saccharomyces cerevisiae; [5]): > 5000 µg/mL
MIC (Staphylococcus aureus; [6]): > 5000 µg/mL
MIC (Corynebacterium sp.; [7]): 5000 µg/mL (≈ 14.4 mM)
MIC [2, 8]: > 5000 µg/mL
MIC (Streptococcus pyogenes; [9]): > 5000 µg/mL

Cc1cc(C(C)(C)C)c(O)c(C(C)(C)C)c1 [BHT, 2,6-di-tert-butyl-4-methylphenol]
MIC (Candida albicans; Table 12, Candida albicans): > 5000 µg/mL
MIC (Candida albicans; Table 16, Candida albicans, no unit in table): > 1000 µg/mL
MIC (Escherichia coli; Table 12, Eschericia coli): > 5000 µg/mL
MIC (Escherichia coli; Table 16, Escherichia coli, no unit in table (Example 5 procedure, mass basis)): > 1000 µg/mL
MIC (Nocardia asteroides; [3]): 1000 µg/mL
MIC (Nocardia asteroides; Table 16, Nocardia asteroides, no unit in table): 1,000
MIC (Pseudomonas aeruginosa; [4]): > 5000 µg/mL
MIC (Pseudomonas aeruginosa; Table 16, Pseudomonas aeruginosa, no unit in table): > 1000 µg/mL
MIC (Saccharomyces cerevisiae; [5]): > 5000 µg/mL
MIC (Saccharomyces cerevisiae; Table 16, Saccharomyces cerevisiae, no unit in table): > 1000 µg/mL
MIC (Staphylococcus aureus; [6]): > 5000 µg/mL
MIC (Staphylococcus aureus; Table 16, Staphylococcus aureus, no unit in table): > 1000 µg/mL
MIC (Corynebacterium sp.; [7]): 100 µg/mL (≈ 0.454 mM)
MIC (Corynebacterium sp.; Table 16, Corynebacterium sp., no unit in table): 100
MIC [2, 8]: > 5000 µg/mL
MIC ([2]; Table 16, Streptococcus faecalis (Group D), no unit in table): > 1000 µg/mL
MIC (Streptococcus pyogenes; [9]): 1000 µg/mL (≈ 4.54 mM)
MIC (Streptococcus pyogenes; Table 16, Streptococcus pyogenes, no unit in table): 1,000

CCCCCCCCCCCCN [Dodecylamine HCl]
MIC [1]: 28 to 112 µM

CCCC/C=C\CCCCCCCC(=O)O [Myristoleic]
MIC ([1]; Table 2, range over the organisms of Table 1): 55 to 552 µM (≈ 12.4 to 125 µg/mL)
